Test results published in paper PMC6927413 (Chemical Communications (Cambridge, England), 2019).
“Also recorded” adds a separate entry of the source. Where two headings read alike, the source gives them in different places.

Columns and labels:
wt-psBBOX [1] = molecular target: T1, wt-psBBOX (Pseudomonas sp., UniProt P80193); conditions: Km for 2OG; cited from earlier work
[2] = molecular target: T2, psBBOX-Y201C-BFA (psBBOX*) (Pseudomonas sp., UniProt P80193, Y201C); test: 1H NMR inhibition assay of psBBOX-Y201C-BFA (psBBOX*) catalysed GBB turnover; format: biochemical, Pseudomonas sp. AK1
T2 construct: hexa-His tag (pCOLDI) (N); made in house; host or cells: E. coli BL21 (DE3)
Protocol: (§1) in 20 mM HCl in D2O), 200 μM GBB (Cl- salt), 600 μM 2OG, in Tris-d11 (pH 7.5 in H 2O).
(§2) 2OG, in phosphate buffer (50 mM, pH 7.1, pD 7.5, in D2O). […]
([(NH4)2Fe(SO4)2.6H2O] in 20mM HCl in D2O), 600 μM 2OG, 500 μM L-ascorbate (di-sodium salt), in Tris-d11 ( p H 7 . 5 i n H 2O ) . […]

wt-psBBOX [3] = molecular target: T1, wt-psBBOX; conditions: 2 μM psBBOX, 50 μM metal, 50 mM HEPES pH 7.5; for Tm Shift: relative to protein without metal
Protocol: psBBOX Differential Scanning Fluorimetry (DSF) assays
See also Supplementary Figure S5. […]
concentration 50 μM). Controls contained 10 μL of buffer instead of metal solution. 2 mL of master mix was prepared by mixing 1.25 mL stock of sypro orange (made by diluting 1 μL of […]
and 739 μl of 50 mM HEPES pH 7.5. […]
μL. Metal solutions were made freshly. Experiments was carried out in triplicate.
DSF was performed using a MiniOpticon Real-Time PCR Detection System (Bio-Rad), monitoring protein unfolding using SYPRO orange (Invitrogen) according to reported […]
nm) filters were used for excitation and the emission, respectively. Reaction mixtures contained: 2 μM protein, 50 μM metal and 1 × SYPRO orange (final volume 50 μL). Reagents were prepared in 50 mM HEPES buffer pH 7.5. Iron solution was prepared shortly before […]
temperature increased linearly by 1 °C per minute.
The inflection point, representing Tm, was calculated by fitting the Boltzmann equation to the sigmoidal curves obtained; data were processed using GraphPad Prism 5.0. The Tm shift caused by the addition of small molecules/fragments was determined by subtraction of the “reference” Tm (protein without metal) from the Tm obtained in the presence of the metal.

hBBOX = conditions: cited from earlier work
psBBOX*-Zn(II) = molecular target: T3, psBBOX*-Zn(II) (Pseudomonas sp., UniProt P80193, Y201C); test: Protein-observed 19F NMR (PrOF) ligand titrations with psBBOX*; format: binding, Pseudomonas sp. AK1; conditions: for effect on the original psBBOX* 19F NMR signal: titration with psBBOX*-Zn(II)
T3 construct: hexa-His tag (pCOLDI) (N); made in house; host or cells: E. coli BL21 (DE3)
Protocol: NMR materials and methods2 […]
broadening of 20 Hz was applied using MestReNova version 11.0. Spectra were referenced to […]
contained: 100 μM psBBOX* in Tris buffer (50 mM, pH 7.5) and 200 mM NaCl in 90% H2O and […]

[4] = molecular target: T2, psBBOX-Y201C-BFA (psBBOX*); test: 1H NMR binding assay with psBBOX-Y201C-BFA (psBBOX*); parameters: species or system Pseudomonas sp. AK1
Protocol: as §1, §2

psBBOX [5] = molecular target: T4, psBBOX (Pseudomonas sp., UniProt P80193); format: binding, Pseudomonas sp. AK1; conditions: 1H NMR reporter assay; for GBB displacement: titration into psBBOX-Zn(II)-2OG-GBB complex; for displacement of GBB and 2OG from the psBBOX active site: wild-type psBBOX
T4 construct: N-terminal hexa-His tag (pCOLD I vector); printed for the Y201C variant, inferred for wild type from the pCOLD template (N); made in house; host or cells: Escherichia coli
Source text: NMR based reporter BBOX assays, using either Zn^(II) or Mn^(II) (making use of paramagnetic relaxation enhancement (PRE)) to observe ligand binding are reported.[25] These enable monitoring of co/substrate 2OG/γ-butyrobetaine (GBB; 3) psBBOX binding and inform on binding modes of inhibitors, including whether they displace GBB and/or 2OG. We now report ^19F NMR studies on ligand binding to BBOX; the work was initiated following ^1H NMR observations concerning the binding of Mildronate to psBBOX.
Since psBBOX is dimeric[21],[22] (Fig. 1C), these observations led to the proposal that binding of a second molecule of GBB (or Mildronate) to the psBBOX-Zn^(II)-2OG–GBB complex strengthens binding of the first GBB molecule, i.e. there is cooperativity in substrate binding between the monomers of the dimer.

psBBOX [6] = molecular target: T4, psBBOX; conditions: reported GBB substrate analogues, hydroxylated to L-carnitine analogues; cited from earlier work
wt-psBBOX [7] = molecular target: T1, wt-psBBOX; test: Fluoride release assay; format: biochemical, Pseudomonas sp. AK1; parameters: N-terminal hexa-His tag (pCOLD I vector); printed for the Y201C variant, inferred for wild type from the pCOLD template (N); made in house; host or cells: Escherichia coli
Protocol: The combined NMR studies on ligand binding led to the proposal that a new BBOX inhibitor scaffold could be identified by directly incorporating analogues of identified 2OG and GBB binding motifs, comprising appropriately positioned metal chelating and quaternary ammonium moieties, giving a ‘co-substrate/substrate’ mimic. With this in mind, RL190B (8) was synthesised (ESI ^†); it is a relatively potent psBBOX inhibitor (IC50 = 5 μM (fluoride release assay)[31]). […] By contrast with other ligand titrations using psBBOX* such significant line broadening was not observed (e.g. Fig. S11–S13, ESI ^†). Broadening of signals in PrOF NMR is often typical of weaker inhibitors; the significant (and unusual amongst studied compounds) signal attenuation observed with (8) may be a result of its binding in both 2OG and GBB cavities. This may cause changes of conformational mobility/protein destabilisation, potentially yielding a number of indistinct conformational states.
(B) RL190B is a 2OG and substrate mimic. (C) RL190B causes attenuation of the psBBOX* ^19F NMR signal. (D) RL190B inhibition of wt-psBBOX as determined by a fluoride release assay.[31] TEXT PRINTED IN THE PICTURE: (D) RL190B (8): IC50 (psBBOX) = 5 μM

BBOX = system: BBOX; parameters: method as in earlier work; conditions: 2OG-competing, metal-chelating BBOX inhibitor; cited from earlier work

T1 sequence (P80193 whole entry): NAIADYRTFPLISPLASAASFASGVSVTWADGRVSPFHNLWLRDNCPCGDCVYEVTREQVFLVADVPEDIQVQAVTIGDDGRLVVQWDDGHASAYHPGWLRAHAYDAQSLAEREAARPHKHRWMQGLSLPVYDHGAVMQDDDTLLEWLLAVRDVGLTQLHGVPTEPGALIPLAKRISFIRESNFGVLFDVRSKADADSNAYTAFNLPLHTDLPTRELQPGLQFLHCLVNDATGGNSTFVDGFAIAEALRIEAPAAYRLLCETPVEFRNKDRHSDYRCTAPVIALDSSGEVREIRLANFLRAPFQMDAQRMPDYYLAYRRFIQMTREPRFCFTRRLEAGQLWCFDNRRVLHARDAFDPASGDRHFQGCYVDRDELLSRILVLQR
T3 sequence (P80193 whole entry Y201C): as the sequence (P80193 whole entry) above, with Y201C counted along it
T2 sequence (P80193 whole entry Y201C): as the sequence (P80193 whole entry) above, with Y201C counted along it

| Compound | Tm (wt-psBBOX [3]) | Tm Shift (wt-psBBOX [3]) [°C] | other results |
| --- | --- | --- | --- |
| O=C(O)CCC(=O)C(=O)O [2OG, 2-oxoglutarate] |  |  | Km (wt-psBBOX [1]): 532 µM |
| O=C(N[C@@H](CSCc1ccccn1)C(=O)O)c1ncccc1O [AR692B] |  |  | IC50 [2]: 245 µM |
| [Co+2] [Co(II)] | 6.6±2.2 | 15.7±0.8 |  |
| [Cu+2] [Cu(II)] | 6.3±0.5 | 12.4±1.1 |  |
| [Fe+2] [Fe(II)] |  | 8.4±0.7 |  |
| [K+] [K(I)] |  | 0.0±0.1 |  |
| [Mg+2] [Mg(II)] | 20.1±0.2 | 0.0±0.1 |  |
| C[N+](C)(C)NCCC(=O)[O-] [Mildronate, reference compound] |  |  | IC50 (hBBOX): 34 to 60 µM; change of 19F NMR spectrum on addition to psBBOX*-Zn(II)-GBB-2OG (psBBOX*-Zn(II); psBBOX*-Zn(II)-GBB-2OG): does not change; also recorded: did not manifest detectable changes; inhibition of psBBOX* catalysed GBB turnover ([2]; 1H NMR, 2.5 μM psBBOX*, 100 μM Fe(II), 200 μM GBB, 600 μM 2OG): unable to detect inhibition; Kd [4]: 12.3 ± 1 µM; GBB displacement (psBBOX [5]): ≤ 60%; GBB displacement (psBBOX [5]; listed as 4): ~60% |
| [Mn+2] [Mn(II)] | 17.7±1.4 | 1.3±0.2 |  |
| [Na+] [Na(I)] | 20.5±0.4 | 0.2±0.1 |  |
| [Ni+2] [Ni(II)] | 12.3±0.2 | 18.1±0.1 |  |
| C[P+](C)(C)CCCC(=O)[O-] [P-GBB] |  |  | substrate for psBBOX (psBBOX [6]): substrates |
| C[N+](C)(C)CCCCN(O)C(=O)/C=C/C(=O)O [RL190B, (E)-4-(3-Carboxy-N-hydroxyacrylamido)-N,N,N-trimethylbutan-1-aminium] |  |  | effect on the original psBBOX* 19F NMR signal (psBBOX*-Zn(II)): attenuation; effect on the original psBBOX* 19F NMR signal (psBBOX*-Zn(II); listed as 8): significant broadening and almost complete attenuation; IC50 [2]: 15 µM; displacement of GBB and 2OG from the psBBOX active site (psBBOX [5]): displaces both GBB and 2OG; displacement of GBB and 2OG from the psBBOX active site (psBBOX [5]; listed as 8): displace both GBB and 2OG; IC50 (wt-psBBOX [7]): 5 µM |
| [Zn+2] [Zn(II)] | 6.6±0.7 | 12.8±1.3 |  |
| O=C(N[C@@H](Cc1c[nH]c2ccccc12)C(=O)O)c1nc(Cl)c2ccccc2c1O [compound 5] |  |  | IC50 (BBOX): 0.9 µM |
